# Tests used:
# [1] = molecular target: adrenergic alpha-1 receptors (rat cortical membrane preparation); assay: Alpha-1 receptor binding; conditions: [3H]-prazosine, rat cortical membranes; read-out: α-1 Ki
# Experimental: The non-specific binding was determined in the presence of 10 μM phentolamine.
# [2] = molecular target: rat recombinant D3 receptors (Rattus norvegicus (Rat), UniProt P19020); assay: D3 receptor binding; conditions: for Ki: [3H]spiperone, rat recombinant D3 in Sf9 cells
# male Wistar rats [3] = assay: Scopolamine-induced learning disturbance in the water-labyrinth; format: in vivo, rat
# Experimental: 6. Scopolamine-Induced Learning Disturbance in the Water-Labyrinth
# The learning process of rats was assessed in a 3-choice point water-labyrinth system. The number of directional turning errors was recorded in three daily trials for three experimental days. Male Wistar rats weighing 180-200 g (n=10 per groups) were treated orally with vehicle or the test compounds 1 hour before each daily session. Scopolamine (3 mg/kg ip.) as amnestic agent was injected 30 minutes prior to the first daily trial. Mean±SE of errors committed in all the trials was calculated in each group. Percent inhibition of scopolamine-induced increase in the number of errors was calculated for each dose of the tested compound.
# male Wistar rats [4] = assay: Catalepsy test; format: in vivo; conditions: rat; for Catalepsy (MED): oral, minimum effective cataleptic dose; for TI, therapeutic index - catalepsy MED divided by amphetamine hypermotility ED50: in vivo
# Experimental: Thirty minutes after the oral treatment with the test compounds male Wistar rats weighing 200-220 g (n=10/group) were placed in extra-ordinary position: placing both forepaws of the rat on a 10 cm high podium. […] The frequency of cataleptic animals was determined at one, two, three, four and five hours after the treatment. Minimum effective (cataleptic) dose was defined as the dose causing catalepsy at least at two readings (i.e. either at two time points in the same animal or in two different animals at any of the time points).
# [5] = molecular target: D2 receptor (rat brain striatal membrane preparation) (Rattus norvegicus (Rat), UniProt P61169); assay: D2 receptor binding; conditions: [3H]spiperone, rat striatal membranes
# Experimental: Non-specific binding was determined in the presence of 1 μM (+) butaclamol.
# male Wistar rats [6] = assay: Amphetamine-induced hypermotility; format: in vivo; conditions: oral, rat, d-amphetamine 0.5 mg/kg sc.; for ED50: read-out: Inhibition of amphetamine-induced hypermotility (ED50)
# Experimental: 4. Amphetamine-Induced Hypermotility
# One hour after the oral administration of doses of the test compound or vehicle, male Wistar rats were subcutaneously treated with d-amphetamine (0.5 mg/kg, sc.) and were individually placed in activity cages for one hour. Locomotor activity was measured in a four-channel activity monitor equipped with infrared photobeams Horizontal movement was determined as the number of beam interruptions. Mean±SE of horizontal activity data of each group was calculated. Percent inhibition of amphetamine-induced increase in locomotion was calculated for each dose of the tested compound. The ED-50 value was determined by linear regression fitted to the dose-response plot.
# Sequence of rat recombinant D3 receptors (P19020 whole entry): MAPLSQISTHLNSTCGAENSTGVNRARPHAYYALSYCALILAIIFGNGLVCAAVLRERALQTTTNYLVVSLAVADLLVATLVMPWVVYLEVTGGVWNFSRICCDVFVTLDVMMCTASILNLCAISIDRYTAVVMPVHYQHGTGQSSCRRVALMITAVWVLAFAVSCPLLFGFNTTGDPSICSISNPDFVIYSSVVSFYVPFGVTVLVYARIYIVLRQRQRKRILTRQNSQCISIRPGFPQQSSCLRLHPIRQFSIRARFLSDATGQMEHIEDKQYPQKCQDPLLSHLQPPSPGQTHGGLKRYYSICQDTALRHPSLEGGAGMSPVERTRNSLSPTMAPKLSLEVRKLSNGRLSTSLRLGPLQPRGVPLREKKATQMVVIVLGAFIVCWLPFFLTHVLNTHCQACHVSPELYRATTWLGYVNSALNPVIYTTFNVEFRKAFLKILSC
# Sequence of D2 receptor (rat brain striatal membrane preparation) (P61169 whole entry): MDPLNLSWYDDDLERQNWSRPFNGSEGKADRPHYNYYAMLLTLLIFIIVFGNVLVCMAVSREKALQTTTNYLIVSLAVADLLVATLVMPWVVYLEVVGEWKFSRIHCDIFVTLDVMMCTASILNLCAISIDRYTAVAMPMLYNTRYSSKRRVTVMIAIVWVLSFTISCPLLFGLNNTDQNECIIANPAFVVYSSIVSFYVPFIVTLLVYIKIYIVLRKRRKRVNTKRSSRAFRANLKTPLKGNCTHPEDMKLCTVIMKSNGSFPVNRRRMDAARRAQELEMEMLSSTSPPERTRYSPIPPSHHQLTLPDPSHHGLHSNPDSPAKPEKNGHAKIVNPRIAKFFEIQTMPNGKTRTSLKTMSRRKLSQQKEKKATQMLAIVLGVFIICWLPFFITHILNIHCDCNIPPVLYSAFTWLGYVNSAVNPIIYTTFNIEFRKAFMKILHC
SMILES,Ki [1] [nM],"Sel. = D2/D3 selectivity, Ki for D2 receptor divided by Ki for D3 receptor [2]",Ki [5] [nM],Ki [2] [nM],further results
"CNc1nc(Cl)c(Cl)c(N2CCN(CC[C@H]3CC[C@H](NC(N)=O)CC3)CC2)n1 [Compound 2, Trans-(4-{2-[4-(5,6-dichloro-2-methylamino-pyrimidin-4-yl)-piperazin-1-yl]-ethyl}-cyclohexyl)-urea]",> 1000,27,,,
CNc1nc(Cl)c(Cl)c(N2CCN(CC[C@H]3CC[C@H](NC(=O)N(C)C)CC3)CC2)n1 [Compound 8],> 1000,7,15 to 50,1 to 3,"% inhibition of scopolamine-induced learning disturbance (male Wistar rats [3]; dose 0.025 mg/kg oral): 38%; % inhibition of scopolamine-induced learning disturbance (male Wistar rats [3]; dose 0.05 mg/kg oral): 65%; % inhibition of scopolamine-induced learning disturbance (male Wistar rats [3]; dose 1 mg/kg oral): 31%; Catalepsy (MED) (male Wistar rats [4]): >25 mg/kg; TI, therapeutic index - catalepsy MED divided by amphetamine hypermotility ED50 (male Wistar rats [4]): >179; Inhibition of amphetamine-induced hypermotility (ED50) (male Wistar rats [6]): 0.14 mg/kg"
"CNc1nc(Cl)c(Cl)c(N2CCN(CC[C@H]3CC[C@H](NC(=O)N4CCOCC4)CC3)CC2)n1 [Compound 7, trans-morpholine-4-carboxylic acid (4-{2-[4-(5,6-dichloro-2-methylamino-pyrimidin-4-yl)-piperazin-1-yl]-ethyl}-cyclohexyl)-amide]",> 1000,,,,
"Cc1nc2n(c(=O)c1CCN1CCC(c3noc4cc(F)ccc34)CC1)CCCC2 [Risperidone, reference compound]",,,,,% inhibition of scopolamine-induced learning disturbance (male Wistar rats [3]; dose 0.5 mg/kg oral): −15%; ED50 (male Wistar rats [6]): 0.15 mg/kg
"CCNC(=O)N[C@H]1CC[C@H](CCN2CCN(c3nc(NC)nc(Cl)c3Cl)CC2)CC1 [Compound 10, Trans-1-(4-{2-[4-(5,6-dichloro-2-methylamino-pyrimidin-4-yl)-piperazin-1-yl]-ethyl}-cyclohexyl)-3-ethyl-urea]",,17,,,
CCC(=O)N[C@H]1CC[C@H](CCN2CCN(c3nc(NC)nc(Cl)c3Cl)CC2)CC1 [Compound 11],> 1000,43,5 to 15,< 1,
"CNc1nc(Cl)c(Cl)c(N2CCN(CC[C@H]3CC[C@H](NC(C)=O)CC3)CC2)n1 [Compound 1, Trans-N-(4-{2-[4-(5,6-dichloro-2-methylamino-pyrimidin-4-yl)-piperazin-1-yl]-ethyl}-cyclohexyl)-acetamide]",,22,15 to 50,< 1,"Catalepsy (MED) (male Wistar rats [4]): 100 mg/kg; TI, therapeutic index - catalepsy MED divided by amphetamine hypermotility ED50 (male Wistar rats [4]): 714"
"CCNc1nc(Cl)c(Cl)c(N2CCN(CC[C@H]3CC[C@H](NC(C)=O)CC3)CC2)n1 [Compound 6, trans-N-(4-{2-[4-(5,6-dichloro-2-ethylamino-pyrimidin-4-yl)-piperazin-1-yl]-ethyl}-cyclohexyl)-acetamide]",> 1000,23,,,
"Cc1cc2c(s1)Nc1ccccc1N=C2N1CCN(C)CC1 [Olanzapine, reference compound]",,,,,% inhibition of scopolamine-induced learning disturbance (male Wistar rats [3]; dose 1 mg/kg oral): −12%; % inhibition of scopolamine-induced learning disturbance (male Wistar rats [3]; dose 3 mg/kg oral): −49%; ED50 (male Wistar rats [6]): 1.8 mg/kg
